What was measured:
Escherichia coli [1] = test: Antimicrobial activity against Escherichia coli; type: functional
Pseudomonas aeruginosa [2] = test: Antimicrobial activity against Pseudomonas aeruginosa; type: functional
Staphylococcus aureus [3] = test: Antimicrobial activity against Staphylococcus aureus; type: functional
Bacillus subtilis [4] = test: Antimicrobial activity against Bacillus subtilis; type: functional
Klebsiella pneumoniae [5] = test: Antimicrobial activity against Klebsiella pneumoniae; type: functional
Proteus vulgaris = test: Antimicrobial activity against Proteus vulgaris; type: functional
Salmonella typhimurium = test: Antimicrobial activity against Salmonella typhimurium; type: functional, Salmonella enterica subsp. enterica serovar Typhimurium; conditions: Salmonella enterica
Listeria monocytogenes = test: Antimicrobial activity against Listeria monocytogenes; type: functional
Enterococcus faecalis = test: Antimicrobial activity against Enterococcus faecalis; type: functional
Candida albicans [6] = test: Antifungal activity against Candida albicans; type: functional
Nakaseomyces glabratus = test: Antifungal activity against Candida glabrata; type: functional
Candida tropicalis = test: Antifungal activity against Candida tropicalis; type: functional
Staphylococcus aureus [7] = test: Antimicrobial activity against Staphylococcus aureus assessed as zone of inhibition at 5 mg/ml after 24 to 48 hrs by well diffusion method; type: functional; conditions: read-out: IZ
Bacillus subtilis [8] = test: Antimicrobial activity against Bacillus subtilis assessed as zone of inhibition at 5 mg/ml after 24 to 48 hrs by well diffusion method; type: functional; conditions: read-out: IZ
Pseudomonas aeruginosa [9] = test: Antimicrobial activity against Pseudomonas aeruginosa assessed as zone of inhibition at 5 mg/ml after 24 to 48 hrs by well diffusion method; type: functional; conditions: read-out: IZ
Escherichia coli [10] = test: Antimicrobial activity against Escherichia coli assessed as zone of inhibition at 5 mg/ml after 24 to 48 hrs by well diffusion method; type: functional; conditions: read-out: IZ
Pichia kudriavzevii = test: Antifungal activity against Candida krusei
Aspergillus niger [11] = test: Antifungal activity against Aspergillus niger; type: functional
Proteus mirabilis [12] = test: Antimicrobial activity against Proteus mirabilis; type: functional
[13] = tested on: Staphylococcus epidermidis; test: Antimicrobial activity against Staphylococcus epidermidis; type: functional
Bacillus cereus = test: Antimicrobial activity against Bacillus cereus; type: functional
[14] = tested on: Talaromyces purpureogenus; test: Antifungal activity against Penicillium purpurogenum; type: functional
Aspergillus flavus = test: Antifungal activity against Aspergillus flavus; type: functional
Trichothecium roseum = test: Antifungal activity against Trichothecium roseum; type: functional
Escherichia coli [15] = test: Antimicrobial activity against Escherichia coli after 24 hrs by agar disk diffusion method; type: functional
Pseudomonas aeruginosa [16] = test: Antimicrobial activity against Pseudomonas aeruginosa after 24 hrs by agar disk diffusion method; type: functional
Klebsiella pneumoniae [17] = test: Antimicrobial activity against Klebsiella pneumoniae after 24 hrs by agar disk diffusion method; type: functional
Proteus mirabilis [18] = test: Antimicrobial activity against Proteus mirabilis after 24 hrs by agar disk diffusion method; type: functional
Staphylococcus aureus [19] = test: Antimicrobial activity against Staphylococcus aureus ATCC 25923 assessed as zone of inhibition at 100 ug/ml after 24 hrs by disc diffusion method; type: functional; conditions: ATCC 25923, 24 h, read-out: IZ
Klebsiella pneumoniae [20] = test: Antimicrobial activity against Klebsiella pneumoniae ATCC 700603 assessed as zone of inhibition at 100 ug/ml after 24 hrs by disc diffusion method; type: functional; conditions: ATCC 700603, 24 h, read-out: IZ
Escherichia coli [21] = test: Antimicrobial activity against Escherichia coli assessed as zone of inhibition at 10 ug/ml; type: functional; conditions: read-out: IZ
Candida albicans [22] = test: Antifungal activity against Candida albicans assessed as zone of inhibition at 10 ug/ml; type: functional; conditions: read-out: IZ
Bacillus subtilis [23] = test: Antimicrobial activity against Bacillus subtilis assessed as zone of inhibition at 10 ug/ml; type: functional; conditions: read-out: IZ
Lactococcus lactis = test: Antimicrobial activity against Streptococcus lactis assessed as zone of inhibition at 10 ug/ml; type: functional; conditions: read-out: IZ
Pseudomonas = test: Antimicrobial activity against Pseudomonas assessed as zone of inhibition at 10 ug/ml; type: functional; conditions: read-out: IZ
Streptomyces = test: Antimicrobial activity against Streptomyces assessed as zone of inhibition at 10 ug/ml; type: functional; conditions: read-out: IZ
Aspergillus niger [24] = test: Antifungal activity against Aspergillus niger assessed as zone of inhibition at 10 ug/ml; type: functional; conditions: read-out: IZ
Penicillium = test: Antifungal activity against Penicillium assessed as zone of inhibition at 10 ug/ml; type: functional; conditions: read-out: IZ
[25] = Antifungal activity against Rhodotorula ingeniosa assessed as zone of inhibition at 10 ug/ml; type: functional; conditions: Sampaiozyma ingeniosa; read-out: IZ
Bacillus subtilis [26] = test: Antimicrobial activity against Bacillus subtilis NCIM 2250 after 48 hrs by NCCLS protocol based method; type: functional; conditions: NCIM 2250, 48 h
Escherichia coli [27] = test: Antimicrobial activity against Escherichia coli ATCC 25922 after 48 hrs by NCCLS protocol based method; type: functional; conditions: ATCC 25922, 48 h
Aspergillus niger [28] = test: Antifungal activity against Aspergillus niger NCIM 545 after 48 hrs by NCCLS protocol based method; type: functional; conditions: NCIM 545, 48 h
Candida albicans [29] = test: Antifungal activity against Candida albicans MTCC 277 after 48 hrs by NCCLS protocol based method; type: functional; conditions: MTCC 277, 48 h

Cn1c(-c2ccc(NC(=O)CSc3nnnn3-c3ccccc3)cc2)nc2cc(Cl)c(Cl)cc21
12.5 to 400 µg/mL: MIC (Escherichia coli [1]) | MIC (Pseudomonas aeruginosa [2]) | MIC (Staphylococcus aureus [3]) | MIC (Bacillus subtilis [4]) | MIC (Klebsiella pneumoniae [5]) | MIC (Proteus vulgaris) | MIC (Salmonella typhimurium) | MIC (Listeria monocytogenes) | MIC (Enterococcus faecalis) | MIC (Candida albicans [6]) | MIC (Nakaseomyces glabratus) | MIC (Candida tropicalis)

Cc1c(-c2cc(-c3ccc(-c4cc(-c5cnn(-c6ccccc6)c5C)n5nnnc5n4)cc3)nc3nnnn23)cnn1-c1ccccc1
8.1 to 9.9 mm: zone of inhibition at 5000 µg/mL (Staphylococcus aureus [7]) | zone of inhibition at 5000 µg/mL (Bacillus subtilis [8]) | zone of inhibition at 5000 µg/mL (Pseudomonas aeruginosa [9]) | zone of inhibition at 5000 µg/mL (Escherichia coli [10])

Fc1cc2[nH]c(SCc3ccc(-c4ccccc4-c4nnnn4C(c4ccccc4)(c4ccccc4)c4ccccc4)cc3)nc2cc1-n1cncn1
16 to 64 µg/mL: MIC (Escherichia coli [1]) | MIC (Pseudomonas aeruginosa [2]) | MIC (Staphylococcus aureus [3]) | MIC (Bacillus subtilis [4]) | MIC (Candida albicans [6]) | MIC (Nakaseomyces glabratus) | MIC (Candida tropicalis) | MIC (Pichia kudriavzevii)

Cc1c(-c2cc(-c3ccccc3)nc3nnnn23)cnn1-c1ccccc1
13.7 to 18.6 mm: zone of inhibition at 5000 µg/mL (Staphylococcus aureus [7]) | zone of inhibition at 5000 µg/mL (Bacillus subtilis [8]) | zone of inhibition at 5000 µg/mL (Pseudomonas aeruginosa [9]) | zone of inhibition at 5000 µg/mL (Escherichia coli [10])

COc1ccc(C2=NN(C(N)=S)C(c3cc4cc(C)ccc4n4nnnc34)C2)cc1 (centres undefined)
3.12 to 25 µg/mL: MIC (Escherichia coli [1]) | MIC (Pseudomonas aeruginosa [2]) | MIC (Staphylococcus aureus [3]) | MIC (Candida albicans [6]) | MIC (Aspergillus niger [11]) | MIC (Proteus mirabilis [12]) | MIC [13]

Cn1nnnc1SCC(=O)Nc1ccc(-c2nc3cc(Cl)c(Cl)cc3n2C)cc1
12.5 to 400 µg/mL: MIC (Escherichia coli [1]) | MIC (Pseudomonas aeruginosa [2]) | MIC (Staphylococcus aureus [3]) | MIC (Bacillus subtilis [4]) | MIC (Klebsiella pneumoniae [5]) | MIC (Proteus vulgaris) | MIC (Salmonella typhimurium) | MIC (Listeria monocytogenes) | MIC (Enterococcus faecalis) | MIC (Candida albicans [6]) | MIC (Nakaseomyces glabratus) | MIC (Candida tropicalis)

Fc1cc2nc(SCc3ccc(-c4ccccc4-c4nnnn4C(c4ccccc4)(c4ccccc4)c4ccccc4)cc3)[nH]c2cc1-n1ccnc1
16 to 64 µg/mL: MIC (Escherichia coli [1]) | MIC (Pseudomonas aeruginosa [2]) | MIC (Staphylococcus aureus [3]) | MIC (Bacillus subtilis [4]) | MIC (Candida albicans [6]) | MIC (Nakaseomyces glabratus) | MIC (Candida tropicalis) | MIC (Pichia kudriavzevii)

COc1ccc(C2=NN(C(N)=S)C(c3cc4ccc(C)cc4n4nnnc34)C2)cc1 (centres undefined)
3.12 to 25 µg/mL: MIC (Escherichia coli [1]) | MIC (Pseudomonas aeruginosa [2]) | MIC (Staphylococcus aureus [3]) | MIC (Candida albicans [6]) | MIC (Aspergillus niger [11]) | MIC (Proteus mirabilis [12]) | MIC [13]

N=C(N)Nc1nnn(Cc2ccccc2Cn2nnc(C(=N)N)n2)n1
30 to 40 µg/mL: MIC (Escherichia coli [1]) | MIC (Pseudomonas aeruginosa [2]) | MIC (Bacillus cereus) | MIC (Bacillus subtilis [4]) | MIC [14] | MIC (Aspergillus flavus) | MIC (Trichothecium roseum)

CC1(C)S[C@@H]2[C@H](NC(=O)[C@H](N)c3ccccc3)C(=O)N2[C@H]1C(=O)O [AMPICILLIN]
6.25 µg/mL: MIC (Escherichia coli [15]) | MIC (Pseudomonas aeruginosa [16]) | MIC (Klebsiella pneumoniae [17]) | MIC (Proteus mirabilis [18]) | MIC (Bacillus cereus)
100 to 250 µg/mL: MIC (Aspergillus niger [11])
2 to 250 µg/mL: MIC (Escherichia coli [1]) | MIC (Pseudomonas aeruginosa [2]) | MIC (Staphylococcus aureus [3]) | MIC (Candida albicans [6])
16.5 mm: zone of inhibition at 100 µg/mL (Staphylococcus aureus [19])
15 mm: zone of inhibition at 100 µg/mL (Klebsiella pneumoniae [20])
2 to 64 µg/mL: MIC (Bacillus subtilis [4]) | MIC (Nakaseomyces glabratus) | MIC (Candida tropicalis) | MIC (Pichia kudriavzevii)

CN[C@@H]1[C@H](O[C@H]2[C@H](O[C@H]3[C@H](O)[C@@H](O)[C@H](N=C(N)N)[C@@H](O)[C@@H]3N=C(N)N)O[C@@H](C)[C@]2(O)C=O)O[C@@H](CO)[C@H](O)[C@H]1O [STREPTOMYCIN]
21 to 22 mm: zone of inhibition at 10 µg/mL (Escherichia coli [21]) | zone of inhibition at 10 µg/mL (Candida albicans [22]) | zone of inhibition at 10 µg/mL (Bacillus subtilis [23]) | zone of inhibition at 10 µg/mL (Lactococcus lactis) | zone of inhibition at 10 µg/mL (Pseudomonas) | zone of inhibition at 10 µg/mL (Streptomyces) | zone of inhibition at 10 µg/mL (Aspergillus niger [24]) | zone of inhibition at 10 µg/mL (Penicillium) | zone of inhibition at 10 µg/mL [25]
26.9 mm: zone of inhibition at 5000 µg/mL (Escherichia coli [10])
20.6 mm: zone of inhibition at 5000 µg/mL (Pseudomonas aeruginosa [9])
200 to 400 µg/mL: MIC (Escherichia coli [1]) | MIC (Pseudomonas aeruginosa [2]) | MIC (Staphylococcus aureus [3]) | MIC (Bacillus subtilis [4])
10 µg/mL: MIC (Bacillus subtilis [26]) | MIC (Escherichia coli [27]) | MIC (Aspergillus niger [28]) | MIC (Candida albicans [29])

Reference: ChEMBL document CHEMBL4342421, “Current scenario of tetrazole hybrids for antibacterial activity” (Eur J Med Chem, 2019)
